Experimental findings from US10538555B2, “Macrocyclic inhibitors of the PD-1/PD-L1 and CD80(B7-1)/PD-L1 protein/protein interactions” (BRISTOL-MYERS SQUIBB COMPANY, priority 2014, dated 2020) are described below.

Where two headings read alike, the source gives them in different places. *1 amine or outer side, *2 acyl side, *3 side chain or, on linkers, in order; H or OH if unused. Where a SMILES comes first, the peptide text is derived from it. Bridges are numbered along the chain shown (N, C = ends). [ ]: non-standard residue; d: D form. The star is where a group is joined. ξ: configuration not given here. X3 = O=C(C[C@@H](CO)C(=O)[*:2])[C@H](Cc1c[nH]c2ccccc12)N[*:1]; Trp(1-CH2COOH) = N[C@@H](Cc1cn(CC(=O)O)c2ccccc12)C(=O)O; X2 = NC(=O)C[C@H](N[*:1])C(=O)C1CCC[C@H]1C(=O)[*:2]; Phe(3,4,5-F3) = N[C@@H](Cc1cc(F)c(F)c(F)c1)C(=O)O; Pro(trans-4-F) = O=C(O)[C@@H]1C[C@@H](F)CN1; d(cisHyp) = O=C(O)[C@H]1C[C@@H](O)CN1; NMeY = CN[C@@H](Cc1ccc(O)cc1)C(=O)O; Hyp = O=C(O)[C@@H]1C[C@@H](O)CN1; NMeF = CN[C@@H](Cc1ccccc1)C(=O)O; X1 = O=C([C@H]1COCCN1[*:1])[*:2]; NMeNle = CCCC[C@H](NC)C(=O)O; dNle = CCCC[C@@H](N)C(=O)O; Pip = O=C(O)[C@@H]1CCCCN1; hSer = N[C@@H](CCO)C(=O)O; NMeA = CN[C@@H](C)C(=O)O; Orn = NCCC[C@H](N)C(=O)O; dNMeA = CN[C@H](C)C(=O)O; Dab = NCC[C@H](N)C(=O)O; Dap = NC[C@H](N)C(=O)O; ξPip = O=C(O)C1CCCCN1; Propionyl = CCC(=O)*; ξC = NC(CS)C(=O)O; Sar = CNCC(=O)O

The assay has as its target T1, Human PD-L1/PD-1 (Homo sapiens, UniProt Q9NZQ7).
T1 construct: TVMV protease cleavage site (C); made in house; host or cells: HEK293T cells
Put plainly: HTRF Human PD-L1/PD-1 binding assay (PD-1-Ig/PD-L1-His). The settings on record: PD-L1-His 10 nM, PD-1-Ig 20 nM. Put shortly: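 Competition of macrocyclic peptides for PD-1/PD-L1 binding measured by HTRF in dPBS containing 0.1% BSA and 0.05% Tween-20. Compound and PD-L1-His (10 nM final) incubated 15 min before PD-1-Ig (20 nM final) and a further 15 min.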
For orientation: Time-resolved FRET reads energy transfer from a long-lived donor to a nearby acceptor.

Setting [1] is: class symbol, read-out: HTRF Human PD-L1/PD-1 Binding Assay IC50 Range.

T1 sequence (Q9NZQ7 with tags, fused parts or gaps): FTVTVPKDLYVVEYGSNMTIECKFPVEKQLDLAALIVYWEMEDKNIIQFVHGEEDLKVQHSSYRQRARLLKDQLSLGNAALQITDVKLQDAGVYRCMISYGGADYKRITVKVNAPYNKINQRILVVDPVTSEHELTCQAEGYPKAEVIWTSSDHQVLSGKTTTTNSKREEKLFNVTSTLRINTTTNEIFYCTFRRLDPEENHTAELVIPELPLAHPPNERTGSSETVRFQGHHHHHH

In the case of `CCCC[C@H]1C(=O)N(C)CC(=O)N[C@@H](CC(N)=O)C(=O)N[C@@H](C(C)C)C(=O)N(C)[C@@H](Cc2ccccc2)C(=O)N[C@@H](Cc2ccc(O)cc2)C(=O)N(C)CC(=O)N[C@@H](Cc2c[nH]c3ccccc23)C(=O)N[C@@H](Cc2ccc(O)cc2)C(=O)N[C@@H](CC(C)C)C(=O)N[C@H](C(=O)NCC(N)=O)CSCC(=O)N[C@@H](Cc2ccccc2)C(=O)N(C)[C@@H](Cc2ccccc2)C(=O)N1C` [Example 3237] ({CH2CO}-F[NMeF][NMeNle][Sar]NV[NMeF]Y[Sar]WYLCG-NH2; thioether N-13), the IC50 under setting [1] lay in the range of 0.01 to 0.0999 µM. Consider `CCCC[C@H]1C(=O)N(C)[C@@H](CCCC)C(=O)N[C@@H](CCCN)C(=O)N[C@H](C(=O)NCC(N)=O)CSCC(=O)N[C@@H](Cc2ccc(O)cc2)C(=O)N2CCCCC2C(=O)N[C@@H](CC(=O)O)C(=O)N2CCC[C@H]2C(=O)N[C@@H](CN)C(=O)N[C@@H](CCC(=O)O)C(=O)N2C[C@H](O)C[C@H]2C(=O)N[C@@H](Cc2c[nH]c3ccccc23)C(=O)N[C@@H](CO)C(=O)N[C@@H](Cc2c[nH]c3ccccc23)C(=O)N1C` (some centres unmarked) [Example 1530] ({CH2CO}-Y[ξPip]DP[Dap]E[Hyp]WSW[NMeNle][NMeNle][Orn]CG-NH2; thioether N-14), for which the IC50 under setting [1] was in the range of 0.01 to 0.0999 µM. Turning to `CCCC[C@H]1C(=O)N(C)[C@@H](CCCC)C(=O)N[C@@H](CCC(=O)O)C(=O)NC(C(=O)NCC(N)=O)CSCC(=O)N[C@@H](Cc2ccc(O)cc2)C(=O)N(C)[C@@H](C)C(=O)N[C@@H](CC(N)=O)C(=O)N2CCC[C@H]2C(=O)N[C@@H](Cc2c[nH]cn2)C(=O)N[C@@H](CC(N)=O)C(=O)N2C[C@H](O)C[C@H]2C(=O)N[C@@H](Cc2c[nH]c3ccccc23)C(=O)N[C@@H](CC(=O)O)C(=O)N[C@@H](Cc2c[nH]c3ccccc23)C(=O)N1C` (some centres unmarked) [Example 9175] ({CH2CO}-Y[NMeA]NPHN[Hyp]WDW[NMeNle][NMeNle]E[ξC]G-NH2; thioether N-14), where the note is “read-out: HTRF Human PD-L1/PD-1 Binding Assay IC50”, the IC50 stood at 0.364 µM. Turning to `CC(C)C[C@@H]1NC(=O)[C@H](Cc2ccc(O)cc2)NC(=O)[C@H](Cc2c[nH]c3ccccc23)NC(=O)[C@@H](C)N(C)C(=O)[C@H](Cc2ccc(O)cc2)NC(=O)[C@H](Cc2ccccc2)N(C)C(=O)[C@H](C(C)C)NC(=O)[C@H](CC(N)=O)NC(=O)[C@@H](C)N(C)C(=O)[C@H](C)N(C)C(=O)[C@H](Cc2ccccc2)N(C)C(=O)[C@H](Cc2cc(F)c(F)c(F)c2)NC(=O)CSC[C@@H](C(=O)NCC(N)=O)NC1=O` [Example 9190] ({CH2CO}-[Phe(3,4,5-F3)][NMeF][NMeA][dNMeA]NV[NMeF]Y[dNMeA]WYLCG-NH2; thioether N-13), under setting [1], the IC50 is 0.01 to 0.0999 µM. Same read-out and setting: to `CCCC[C@H]1C(=O)N(C)[C@@H](CCCC)C(=O)N[C@@H](CCC(=O)O)C(=O)N[C@H](C(=O)NCC(N)=O)CSCC(=O)N[C@@H](Cc2ccc(O)cc2)C(=O)N2CCCC[C@H]2C(=O)N[C@@H](CC(=O)O)C(=O)N2CCC[C@H]2C(=O)N[C@@H](CN)C(=O)N[C@@H](CCC(=O)O)C(=O)N2C[C@H](O)C[C@H]2C(=O)N[C@@H](Cc2c[nH]c3ccccc23)C(=O)N[C@@H](CO)C(=O)N[C@@H](Cc2c[nH]c3ccccc23)C(=O)N1C` [Example 1521] ({CH2CO}-Y[Pip]DP[Dap]E[Hyp]WSW[NMeNle][NMeNle]ECG-NH2; thioether N-14) belongs 0.001 to 0.0099 µM; to `CCCC[C@H]1C(=O)N(C)[C@@H](CCCC)C(=O)N[C@@H](CCCNC(=O)CC)C(=O)N[C@H](C(=O)NCC(N)=O)CSCC(=O)N[C@@H](Cc2ccc(OC)cc2)C(=O)N(C)[C@@H](C)C(=O)N[C@@H](CC(N)=O)C(=O)N2CCC[C@H]2C(=O)N[C@@H](CC(N)=O)C(=O)N[C@@H](CC(C)C)C(=O)N2C[C@H](F)C[C@H]2C(=O)N[C@@H](Cc2c[nH]c3ccccc23)C(=O)N[C@@H](C)C(=O)N[C@@H](Cc2c[nH]c3ccccc23)C(=O)N1C` [Example 7083] ({CH2CO}-Y(Me)[NMeA]NPNL[Pro(trans-4-F)]WAW[NMeNle][NMeNle][Orn](Propionyl)CG-NH2; thioether N-14), 0.01 to 0.0999 µM; to `CCCC[C@H]1C(=O)N2CCC[C@@H]2C(=O)N[C@@H](CC(=O)O)C(=O)N[C@@H](C(C)C)C(=O)N(C)[C@@H](Cc2ccccc2)C(=O)N[C@@H](CCC(=O)O)C(=O)N2CCOC[C@@H]2C(=O)N[C@@H](Cc2c[nH]c3ccccc23)C(=O)N[C@@H](Cc2ccc(O)cc2)C(=O)N[C@@H](CN)C(=O)N[C@H](C(=O)NCC(N)=O)CSCC(=O)N[C@@H](Cc2cc(F)c(F)c(F)c2)C(=O)N(C)[C@@H](Cc2ccc(O)cc2)C(=O)N1C` [Example 10617] ({CH2CO}-[Phe(3,4,5-F3)][NMeY][NMeNle][dP]DV[NMeF]E[X1]WY[Dap]CG-NH2; thioether N-13), 0.01 to 0.0999 µM.

On to `CCCC[C@H]1C(=O)N(C)[C@@H](CCCC)C(=O)N[C@@H](CC(C)C)C(=O)N[C@H](C(=O)NCC(N)=O)CSCC(=O)N[C@@H](Cc2ccc(O)cc2)C(=O)N(C)[C@@H](C)C(=O)N[C@@H](CC(=O)O)C(=O)N2CCC[C@H]2C(=O)N[C@@H](CN)C(=O)N[C@@H](CCC(N)=O)C(=O)N2C[C@H](O)C[C@H]2C(=O)N[C@@H](Cc2c[nH]c3ccccc23)C(=O)N[C@@H](CCN)C(=O)N[C@@H](Cc2cn(CC(=O)O)c3ccccc23)C(=O)N1C` [Example 5153] ({CH2CO}-Y[NMeA]DP[Dap]Q[Hyp]W[Dab][Trp(1-CH2COOH)][NMeNle][NMeNle]LCG-NH2; thioether N-14), for which the IC50 under setting [1] lay in the range of 0.001 to 0.0099 µM. Same read-out and setting: the result for `CCCC[C@H]1C(=O)N2C[C@H](O)C[C@@H]2C(=O)N[C@@H](CC(=O)O)C(=O)N[C@@H](C(C)C)C(=O)N(C)[C@@H](Cc2ccccc2)C(=O)N[C@@H](CCC(=O)O)C(=O)N2CCOC[C@@H]2C(=O)N[C@@H](Cc2c[nH]c3ccccc23)C(=O)N[C@@H](Cc2ccc(O)cc2)C(=O)N[C@@H](CCOC)C(=O)N[C@H](C(=O)NCC(N)=O)CSCC(=O)N[C@@H](Cc2cc(F)c(F)c(F)c2)C(=O)N(C)[C@@H](Cc2ccccc2)C(=O)N1C` [Example 10178] ({CH2CO}-[Phe(3,4,5-F3)][NMeF][NMeNle][d(cisHyp)]DV[NMeF]E[X1]WY[hSer](Me)CG-NH2; thioether N-13) reads 0.001 to 0.0099 µM; that for `CCCC[C@H]1C(=O)N(C)[C@@H](CCCC)C(=O)N[C@@H](CCCN)C(=O)N[C@H](C(=O)NCC(N)=O)CSCC(=O)N[C@@H](Cc2ccc(OC)cc2)C(=O)N(C)[C@@H](C)C(=O)N[C@@H](CC(=O)O)C(=O)N2CCC[C@H]2C(=O)N[C@@H](CN)C(=O)N[C@@H](CCC(=O)O)C(=O)N2C[C@H](O)C[C@H]2C(=O)N[C@@H](Cc2c[nH]c3ccccc23)C(=O)N[C@@H](CC(=O)O)C(=O)N[C@@H](Cc2c[nH]c3ccccc23)C(=O)N1C` [Example 7101] ({CH2CO}-Y(Me)[NMeA]DP[Dap]E[Hyp]WDW[NMeNle][NMeNle][Orn]CG-NH2; thioether N-14), 0.001 to 0.0099 µM; that for `CCCC[C@H]1NC(=O)[C@H](Cc2c[nH]c3ccccc23)NC(=O)[C@H](CO)CC(=O)[C@H](Cc2c[nH]c3ccccc23)NC(=O)[C@@H]2C[C@@H](O)CN2C(=O)[C@H](CCC(N)=O)NC(=O)[C@H](Cc2cnc[nH]2)NC(=O)[C@@H]2CCCC2C(=O)[C@H](CC(N)=O)NC(=O)[C@H](C)N(C)C(=O)[C@H](Cc2ccc(O)cc2)NC(=O)CSCC(C(=O)NCC(N)=O)NC(=O)[C@H](CCC(=O)O)NC(=O)[C@H](CCCC)N(C)C1=O` (some centres unmarked) [Example 10127] ({CH2CO}-Y[NMeA][X2]HQ[Hyp][X3]W[dNle][NMeNle]E[ξC]G-NH2; thioether N-12), 1 to 10 µM.
